Measured values taken from ChEMBL document CHEMBL1143251 (J Med Chem, 2008).
Activity calls are given as the source filed them. The rule behind the calls is not given here.

How the values were obtained:
Glutamate NMDA receptor = assay: Displacement of [3H]TCP from NMDA receptor in rat brain homogenate; format: tissue-based
[1] = target: Sodium-dependent dopamine transporter (Rattus norvegicus, UniProt P23977); assay: Displacement of [3H]WIN-35428 from dopamine transporter in rat brain homogenate; format: tissue-based
Rattus norvegicus = species: Rattus norvegicus; assay: Ratio of Ki for rat sigma1 opioid receptor to Ki for rat sigma2 opioid receptor
[2] = target: Sodium-dependent serotonin transporter (Rattus norvegicus, UniProt P31652); assay: Displacement of [3H]paroxetine from serotonin transporter in rat brain homogenate; format: tissue-based
[3] = Displacement of [3H]ketanserin from 5HT2 receptor in rat brain homogenate; format: tissue-based
[4] = target: Norepinephrine transporter (Rattus norvegicus, UniProt Q9WTR4); assay: Displacement of [3H]nisoxetine from norepinephrine transporter in rat brain homogenate; format: tissue-based
[5] = Displacement of [3H]DTG from opioid sigma2 receptor in rat brain homogenate; format: tissue-based
[6] = Displacement of [3H]bremazocine from opioid receptor in rat brain homogenate; format: tissue-based
Mus musculus = assay: Inhibition of cocaine-induced convulsions in ip dosed Swiss Webster mouse after 15 mins; format: functional, organism-based
[7] = target: Sigma non-opioid intracellular receptor 1 (Rattus norvegicus, UniProt Q9R0C9); assay: Displacement of [3H](+)-pentazocine from opioid sigma1 receptor in rat brain homogenate; format: tissue-based
Sigma non-opioid intracellular receptor 1, sequence (Q9R0C9 whole entry): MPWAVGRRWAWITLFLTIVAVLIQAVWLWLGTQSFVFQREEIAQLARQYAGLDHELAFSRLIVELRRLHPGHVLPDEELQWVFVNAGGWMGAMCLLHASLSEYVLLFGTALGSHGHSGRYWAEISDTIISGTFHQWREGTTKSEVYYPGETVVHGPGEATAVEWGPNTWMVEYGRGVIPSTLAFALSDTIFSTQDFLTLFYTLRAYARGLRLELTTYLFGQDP

Sodium-dependent serotonin transporter, sequence (P31652 whole entry): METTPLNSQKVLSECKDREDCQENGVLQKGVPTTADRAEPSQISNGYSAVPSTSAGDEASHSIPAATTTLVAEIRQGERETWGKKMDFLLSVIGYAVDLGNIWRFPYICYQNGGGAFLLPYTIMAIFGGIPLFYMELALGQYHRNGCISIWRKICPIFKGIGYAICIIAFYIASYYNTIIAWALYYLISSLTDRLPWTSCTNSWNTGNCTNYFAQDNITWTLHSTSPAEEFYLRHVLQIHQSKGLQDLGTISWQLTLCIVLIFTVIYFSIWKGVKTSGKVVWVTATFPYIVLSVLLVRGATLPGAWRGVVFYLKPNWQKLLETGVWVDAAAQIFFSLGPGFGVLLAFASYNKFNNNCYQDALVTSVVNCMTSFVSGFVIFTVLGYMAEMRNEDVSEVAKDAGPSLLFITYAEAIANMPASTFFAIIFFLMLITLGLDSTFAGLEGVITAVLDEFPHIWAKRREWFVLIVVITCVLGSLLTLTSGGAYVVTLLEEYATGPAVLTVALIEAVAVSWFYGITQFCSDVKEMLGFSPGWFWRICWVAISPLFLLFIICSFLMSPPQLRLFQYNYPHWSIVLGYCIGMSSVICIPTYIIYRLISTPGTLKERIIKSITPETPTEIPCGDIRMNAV
Norepinephrine transporter, sequence (Q9WTR4 whole entry): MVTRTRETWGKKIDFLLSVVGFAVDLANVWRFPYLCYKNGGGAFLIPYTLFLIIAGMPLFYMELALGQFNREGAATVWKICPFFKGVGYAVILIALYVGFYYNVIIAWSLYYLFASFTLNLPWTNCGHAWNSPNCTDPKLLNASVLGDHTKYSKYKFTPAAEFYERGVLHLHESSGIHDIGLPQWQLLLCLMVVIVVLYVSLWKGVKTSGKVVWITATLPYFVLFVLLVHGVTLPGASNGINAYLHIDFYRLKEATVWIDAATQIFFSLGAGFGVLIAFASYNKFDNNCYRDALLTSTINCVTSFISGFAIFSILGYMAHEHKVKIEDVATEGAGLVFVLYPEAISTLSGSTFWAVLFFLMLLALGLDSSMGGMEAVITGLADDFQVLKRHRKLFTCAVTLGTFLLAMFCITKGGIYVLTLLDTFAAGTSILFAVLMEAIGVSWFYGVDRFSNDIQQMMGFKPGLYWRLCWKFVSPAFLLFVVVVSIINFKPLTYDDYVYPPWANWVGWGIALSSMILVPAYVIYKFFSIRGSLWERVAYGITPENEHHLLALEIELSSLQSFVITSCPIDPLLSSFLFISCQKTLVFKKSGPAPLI
Sodium-dependent dopamine transporter, sequence (P23977 whole entry): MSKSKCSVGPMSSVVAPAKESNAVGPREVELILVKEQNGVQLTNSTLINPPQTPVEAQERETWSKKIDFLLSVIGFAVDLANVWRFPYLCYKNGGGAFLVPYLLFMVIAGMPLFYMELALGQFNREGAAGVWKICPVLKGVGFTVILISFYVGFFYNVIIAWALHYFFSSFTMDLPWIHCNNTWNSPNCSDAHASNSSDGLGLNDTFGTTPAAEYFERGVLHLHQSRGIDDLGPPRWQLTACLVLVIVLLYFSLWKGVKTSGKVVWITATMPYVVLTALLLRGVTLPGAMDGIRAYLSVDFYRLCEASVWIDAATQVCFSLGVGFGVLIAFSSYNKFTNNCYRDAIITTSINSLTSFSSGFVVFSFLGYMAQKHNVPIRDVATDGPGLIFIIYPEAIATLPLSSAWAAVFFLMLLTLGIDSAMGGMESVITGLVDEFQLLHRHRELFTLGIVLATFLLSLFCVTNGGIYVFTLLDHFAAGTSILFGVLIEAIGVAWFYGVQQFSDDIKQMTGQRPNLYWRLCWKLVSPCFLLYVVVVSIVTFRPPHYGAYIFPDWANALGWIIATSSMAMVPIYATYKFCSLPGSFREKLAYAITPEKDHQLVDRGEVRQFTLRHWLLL

| Compound | Ratio Ki (Rattus norvegicus) | Ki [5] | also measured |
| --- | --- | --- | --- |
| S=c1sc2ccccc2n1CCCCN1CCN(C2CCCCC2)CC1 | 2.33 | 0.55 nM | Ki (Glutamate NMDA receptor): > 10000 nM; Ki [1]: 1170 nM; Ki [2]: 1400 nM; Ki [3]: 1330 nM; Ki [4]: > 10000 nM; Ki [6]: > 10000 nM |
| CCCc1ccc2c(c1)sc(=O)n2CCN1CCCCCC1 | 0.00014 | 831 nM | Activity (Mus musculus): Active; Ki [7]: 0.12 nM |
| O=c1sc2ccccc2n1CCCCCN1CCN(C2CCCCC2)CC1 | – | 2.44 nM | – |
| O=c1sc2ccccc2n1CCCCN1CCN(C2CCCCC2)CC1 | – | 0.39 nM | – |
| O=c1sc2ccccc2n1CCCN1CCN(C2CCCCC2)CC1 | 1.84 | 3.05 nM | – |
| c1ccc2oc(SCCCCN3CCN(C4CCCCC4)CC3)nc2c1 | – | 3.77 nM | – |
| O=c1sc2ccccc2n1CCCCCCN1CCN(C2CCCCC2)CC1 | 4.4 | 1.49 nM | – |
| O=c1oc2ccccc2n1CCCCN1CCN(C2CCCCC2)CC1 | 6.15 | 1.83 nM | – |
| COc1cccc2c1CCCC2CCCN1CCN(C2CCCCC2)CC1 (configuration not stated) | 1.33 | 1.11 nM | Ki [7]: 1.48 nM |
| O=c1sc2ccccc2n1CCN1CCN(C2CCCCC2)CC1 | – | 2.25 nM | – |

Second part, led by results:

| Ratio Ki (Rattus norvegicus) | Ki [5] | Compound | also measured |
| --- | --- | --- | --- |
| – | 8.74 nM | O=c1oc2ccccc2n1CCCN1CCN(C2CCCCC2)CC1 | – |
| – | 0.77 nM | S=c1oc2ccccc2n1CCCCN1CCN(C2CCCCC2)CC1 | – |
| 1.79 | 5.89 nM | O=c1oc2ccccc2n1CCCCCN1CCN(C2CCCCC2)CC1 | – |
| 1.5 | 3.06 nM | O=c1oc2ccccc2n1CCCCCCN1CCN(C2CCCCC2)CC1 | – |
| – | 5.43 nM | O=c1oc2ccccc2n1CCN1CCN(C2CCCCC2)CC1 | – |
